This is an account of results in PubChem BioAssay (NCI).

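The compound was tested at five concentrations on cells cultured in 96-well plates, with a 48-hour exposure period. TGI marks complete inhibition of growth.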 Some results are limits rather than exact numbers.

Test in all cases: inhibition of tumour cell growth, NCI panel, 48 h
Test [1] concerns KM12 colon.
Test [2] concerns NCI-H522 lung.
Test [3] concerns SK-MEL-5 melanoma.
Test [4] deals with SK-MEL-2 melanoma.
Test [5] concerns A549 NSCLC.
In test [6] the test system is UACC-62 melanoma.
The test system of test [7] is UACC-257 melanoma.
The test system of test [8] is OVCAR-8 ovarian.
In test [9] the test system is T-47D breast.
Test [10] has as its system SNB-75 CNS.

Turning to `c1ccc2c(c1)C(=Nc1ccc(N=C3c4ccccc4-c4ccccc43)cc1)c1ccccc1-2`, the TGI in [1], in [2], in test [3], in test [4], in [5] and in test [6] was more than 100 µM throughout. Moreover, the TGI in test [7], in [8] and in [9] was more than 100 µM in each case.
Regarding `[N-]=[N+]=NC1=C(c2ccccc2)C(=O)c2cccc3cccc1c23`, the TGI was 76.5 µM in test [10]; more than 100 µM in test [1]; 18.1 µM in test [3]; more than 100 µM in [4]; more than 100 µM in test [5]; 34.9 µM in [6]. For the same compound, the TGI was determined as 29.2 µM in test [7] and 82.1 µM in test [9].
Regarding `CCCCCCCC/C=C/CCCCCCCC1CC(O)C(=O)O1` (configuration not stated), the TGI in test [10], in test [3], in test [5], in [6], in test [7] and in test [8] was more than 100 µM in each case. In test [9], the TGI was more than 100 µM.
Regarding `CN(C)/C=N/S(=O)(=O)c1nn2c(C=O)c(-c3ccc(-c4ccc([N+](=O)[O-])cc4)o3)nc2s1`, the TGI in test [10] is 36.6 µM; in test [1], more than 49.1 µM; in test [3], 16.3 µM; in [4], 25.9 µM; in test [5] it was more than 32.8 µM; in test [6], 16.8 µM. Also, the TGI is 24.3 µM in test [7], more than 38.8 µM in [8] and more than 44.6 µM in test [9].
Turning to `Cc1cc(C#N)c(Nc2c(C)cccc2[N+](=O)[O-])s1`, the TGI was 72.2 µM in test [10]; more than 100 µM in test [1]; 73.6 µM in [2]; more than 100 µM in test [5]; more than 100 µM in test [6]; more than 100 µM in [7]. The TGI in test [8] and in test [9] was more than 100 µM in each case.
In the case of `Cc1nc(C)c(N2CCN(C#N)CC2)c(=O)[nH]1`, the TGI in [10], in test [1], in [2], in test [3], in test [5] and in test [6] was more than 100 µM in each case. The TGI in [7], in test [8] and in test [9] was more than 100 µM throughout.
As for `CCc1n[nH]c(=O)n1NC(=O)/C=C\C(=O)O`, the TGI in test [10], in test [2], in test [3], in test [4], in [5] and in test [6] was more than 100 µM throughout. The TGI in [7], in test [8] and in test [9] was more than 100 µM each time.
On to `CCOC(=O)C1(Cc2ccccc2)Cc2ccccc2C1=O` (configuration not stated), for which the TGI in [10] is more than 100 µM; in test [1], more than 100 µM; in test [3], 28.8 µM; in [4] it was 30.7 µM; in test [5], more than 100 µM; in [6], 81.7 µM. In addition, the TGI in test [8] is more than 100 µM; in test [9], 88.3 µM.
Regarding `CCCCCCCCCCCCP(=O)(O)OCC(N)C(=O)O` (configuration not stated), the TGI was 40.3 µM in test [10]; more than 100 µM in test [2]; more than 100 µM in test [3]; 91.9 µM in test [4]; more than 100 µM in test [5]; more than 100 µM in test [7]. Also, the TGI in [8] and in test [9] was more than 100 µM in each case.
For the compound `N#CC(c1cc(Cl)ncn1)c1nc2ccccc2s1` (configuration not stated), the TGI is 28.1 µM in [10]; more than 100 µM in test [1]; 4.47 µM in test [2]; 33.1 µM in test [3]; more than 100 µM in test [5]; 32.2 µM in [7]. The TGI in test [8] is 12.5 µM; in [9] it was more than 100 µM.
With `Cc1nc2c(ncn2CCO)c(=O)[nH]1`, the TGI in test [10], in test [1], in [2], in test [3], in test [5] and in [6] was more than 100 µM throughout. Also, the TGI in [7], in test [8] and in [9] was more than 100 µM in each case.
For `C[C@]12CCC(=O)C=C1CC[C@@H]1C2CC[C@]2(C)Nc3c(ncn3-c3ccc(F)cc3)CC12` (some centres not stated), the TGI in test [10] is 77.4 µM; in test [1] it was 85.9 µM; in test [2], 55.1 µM; in [3], 29.7 µM; in test [5], more than 100 µM; in test [6], 54.4 µM. The TGI in test [7] was 66.2 µM; in test [8], more than 100 µM; in [9], 88.7 µM.
With `CCCCOC(=O)C1CN2C(=NC1(C(F)(F)F)C(F)(F)F)Sc1ccccc12` (configuration not stated), the TGI in [10] was more than 100 µM; in test [1], more than 100 µM; in test [3] it was 54.2 µM; in test [4], more than 100 µM; in test [5], more than 100 µM; in test [6], more than 100 µM. Moreover, the TGI in [7], in test [8] and in test [9] was more than 100 µM in each case.
In the case of `Cc1cc2[nH]c3c(C#N)c(-c4ccccc4)c(CN4CCOCC4)c(=O)n3c2cc1C`, the TGI in test [10], in test [1], in [2], in test [4], in [5] and in test [7] was more than 100 µM throughout. The TGI in test [8] and in [9] was more than 100 µM throughout.
Turning to `CN1CCN(c2ccc(-n3cc(C(=O)O)c(=O)c4cc(F)c(N5CCN(C)CC5)cc43)nc2)CC1`, the TGI in [10], in test [1], in test [2], in test [5], in [6] and in [7] was more than 100 µM throughout. Besides, the TGI in test [8] and in test [9] was more than 100 µM each time.
For `CCOC(=O)c1cc(-c2ccc(Cl)cc2)c([N+](=O)[O-])n1C`, the TGI in test [1], in test [2], in test [4], in test [5], in test [7] and in test [8] was more than 10 µM each time. In addition, the TGI in test [9] amounted to 6.45 µM.
Regarding `Cc1cc2c(c(N)c1C)C(=O)c1ccccc1C2=O`, the TGI in [10] is 39.8 µM; in test [1], more than 100 µM; in test [2], more than 100 µM; in test [3], more than 100 µM; in [4] it was more than 100 µM; in test [5] it was more than 100 µM. For the same compound, the TGI in test [6] was 35.5 µM; in test [7], more than 100 µM; in test [8], more than 100 µM.
For the compound `O=c1[nH]c(=O)n(C2CC(O)C(CO)O2)cc1C#Cc1cc(F)cc(F)c1` (configuration not stated), the TGI in test [10], in [1], in test [2], in [3], in test [4] and in test [5] was more than 100 µM in each case. Moreover, the TGI in test [6], in test [7] and in test [8] was more than 100 µM each time.
As for `CN(C)/C=N/c1nc2ncn(CCOC(=O)c3ccccc3)c2c(=O)[nH]1`, the TGI in test [10], in [1], in test [2], in test [3], in test [4] and in [5] was more than 100 µM each time. Besides, the TGI in test [6], in test [7] and in test [8] was more than 100 µM throughout.
Take `CCOP(=O)(OCC)/C(C#N)=C/c1c(C)[nH]c2ccccc12`: the TGI in [10], in test [1], in test [2], in [3], in test [5] and in test [6] was more than 100 µM in each case. The TGI in [7], in test [8] and in [9] was more than 100 µM throughout.
For the compound `NC(CCCCNC(=O)C(Cc1ccccc1)NC(=O)OCc1ccccc1)C(=O)NC(CCCCNC(=O)C(Cc1ccccc1)NC(=O)OCc1ccccc1)C(=O)NC(CCCCNC(=O)C(Cc1ccccc1)NC(=O)OCc1ccccc1)C(=O)NC(CCCCNC(=O)C(Cc1ccccc1)NC(=O)OCc1ccccc1)C(=O)NC(CCCCNC(=O)C(Cc1ccccc1)NC(=O)OCc1ccccc1)C(=O)NC(CCCCNC(=O)C(Cc1ccccc1)NC(=O)OCc1ccccc1)C(=O)O` (configuration not stated), the TGI in test [10], in test [2], in test [3], in test [4], in test [5] and in [6] was more than 100 µM throughout. Further, the TGI in test [7], in [8] and in [9] was more than 100 µM each time.
Take `COc1ccc(C#CCC(OC2OC(CO)C(O)C(O)C2O)C(O)c2ccc(OC)c(OC)c2)cc1OC` (configuration not stated): the TGI in test [10], in [1], in test [2], in test [3], in test [4] and in test [5] was more than 100 µM each time. Besides, the TGI in test [6], in [7] and in [8] was more than 100 µM in each case.
